Data on 12 compounds can be found in patent publication US7342000B2, “Semisynthetic macrolide antibiotics of the azalide series” (GlaxoSmithKline istrazivacki center Zagreb, priority 2002, dated 2008).

Holding throughout (assay): MIC by broth dilution (NCCLS M7-A2)
Holding throughout (format): cell-based
Holding throughout (conditions): 90% growth inhibition
A general note: Broth dilution looks for growth in wells or tubes with falling amounts of substance.

In assay [1] the test system is S. pyogenes M. The text has this:
(§1) MIC levels for all compound were determinated on panel of susceptible, and resistant Gram positive bacterial strains (S. aureus, S. pneumoniae and S. pyogenes) and on Gram negative strains (E. coli, H. influenzae, […], M. catarrhalis).

Assay [2] deals with S. pyogenes iMLS.
Text: as §1

In assay [3] the test system is S. aureus ATCC 13709.
Text: as §1

The test system of assay [4] is E. faecalis ATCC 29212.
Text: as §1

Assay [5] relates to M. catarrhalis ATCC 23246.
Text: as §1

For assay [6], the system named is S. pneumoniae.
Text: as §1

Assay [7] deals with E. coli ATCC 25922.
Text: as §1

For assay [8], the system named is H. influenzae ATCC 49247.
Text: as §1

Assay [9] relates to S. pyogenes.
Text: as §1

Bounds are passed on as bounds.

As for `CC[C@H]1OC(=O)[C@H](C)[C@@H](O[C@H]2C[C@@](C)(OC)[C@@H](O)[C@H](C)O2)[C@H](C)[C@@H](O[C@@H]2O[C@H](C)C[C@H](N(C)C)[C@H]2O)[C@](C)(O)C[C@@H](C)CN(CCCNC(=O)Nc2ccc3ccccc3c2)[C@H](C)[C@@H](O)[C@]1(C)O` [Example 12, 9-Deoxo-9-dihydro-9a-N-[N′-(2-naphtyl)carbamoyl-γ-aminopropyl]-9a-aza-9a-homoerithromycin A], the MIK in assay [1] amounted to 8 µg/mL; in assay [2], 2 µg/mL; in assay [3] it was 8 µg/mL; in [4], 8 µg/mL; in assay [5], 0.5 µg/mL; in [6], 16 µg/mL. Moreover, the MIK in assay [7] was 32 µg/mL; in assay [8], 2 µg/mL; in assay [9] it was “≦0.125 μg/ml”.

For the compound `CC[C@H]1OC(=O)[C@H](C)[C@@H](O[C@H]2C[C@@](C)(OC)[C@@H](O)[C@H](C)O2)[C@H](C)[C@@H](O[C@@H]2O[C@H](C)C[C@H](N(C)C)[C@H]2O)[C@](C)(O)C[C@@H](C)CN(CCCNC(=O)NC(C)c2cccc3ccccc23)[C@H](C)[C@@H](O)[C@]1(C)O` (stereo partly drawn) [Example 10], the MIK in assay [1] was 16 µg/mL; in [2] it was 8 µg/mL; in [3], 16 µg/mL; in assay [4], 16 µg/mL; in assay [5] it was 4 µg/mL; in assay [6] it was 8 µg/mL. Further, the MIK in assay [7] was 64 µg/mL; in [8] it was 2 µg/mL; in assay [9], “≦0.125 μg/ml”.

`CC[C@H]1OC(=O)[C@H](C)[C@@H](O[C@H]2C[C@@](C)(OC)[C@@H](O)[C@H](C)O2)[C@H](C)[C@@H](O[C@@H]2O[C@H](C)C[C@H](N(C)C)[C@H]2O)[C@](C)(O)C[C@@H](C)CN(CCCNC(=O)N(CCC#N)c2cccc3ccccc23)[C@H](C)[C@@H](O)[C@]1(C)O` [Example 28, 9-Deoxo-9-dihydro-9a-N-[N′-(β-cyanoethyl)-N′-(1-naphtyl)carbamoyl-γ-aminopropyl]-9a-aza-9a-homoerithromycin A]: the MIK in assay [1] is 4 µg/mL; in assay [2], 2 µg/mL; in assay [3], 1 µg/mL; in assay [4], 4 µg/mL; in [5], 0.25 µg/mL; in assay [6], “≦0.125 μg/ml”. For the same compound, the values for the MIK in assay [7], in assay [8] and in assay [9] were 8 µg/mL, 1 µg/mL and “≦0.125 μg/ml”, respectively.

As for `CCC1OC(=O)C(C)C(OC2CC(C)(OC)C(O)C(C)O2)C(C)C(OC2OC(C)CC(N(C)C)C2O)C(C)(O)CC(C)CN(CCCNC(=S)N(CCC#N)Cc2ccccc2)C(C)C(O)C1(C)O` (stereo not drawn) [Example 30, 9-Deoxo-9-dihydro-9a-N-[N′-(β-cyanoethyl)-N′-benzylthiocarbamoyl-γ-aminopropyl]-9a-aza-9a-homoerithromycin A], the MIK in [1] was 4 µg/mL; in [2], 2 µg/mL; in assay [3] it was 1 µg/mL; in assay [4], 8 µg/mL; in assay [5], 1 µg/mL; in assay [6], “≦0.125 μg/ml”. Moreover, the results for the MIK in [7], in assay [8] and in [9] were 16 µg/mL, 2 µg/mL and “≦0.125 μg/ml”, respectively.

In the case of `CC[C@H]1OC(=O)[C@H](C)[C@@H](O[C@H]2C[C@@](C)(OC)[C@@H](O)[C@H](C)O2)[C@H](C)[C@@H](O[C@@H]2O[C@H](C)C[C@H](N(C)C)[C@H]2O)[C@](C)(O)C[C@@H](C)CN(CCCNC(=O)NCCc2ccccc2)[C@H](C)[C@@H](O)[C@]1(C)O` [Example 8, 9-Deoxo-9-dihydro-9a-N-[N′-(β-phenylethyl)carbamoyl-γ-aminopropyl]-9a-aza-9a-homoerithromycin A], the MIK in assay [1] was 8 µg/mL; in assay [2] it was 4 µg/mL; in [3] it was 1 µg/mL; in assay [4] it was 16 µg/mL; in assay [5] it was 1 µg/mL; in assay [6] it was “≦0.125 μg/ml”. The MIK is 32 µg/mL in assay [7], 2 µg/mL in assay [8] and “≦0.125 μg/ml” in assay [9].

As to `CC[C@H]1OC(=O)[C@H](C)[C@@H](O[C@H]2C[C@@](C)(OC)[C@@H](O)[C@H](C)O2)[C@H](C)[C@@H](O[C@@H]2O[C@H](C)C[C@H](N(C)C)[C@H]2O)[C@](C)(O)C[C@@H](C)CN(CCCNC(=S)N(CCC#N)c2cccc3ccccc23)[C@H](C)[C@@H](O)[C@]1(C)O` [Example 31, 9-Deoxo-9-dihydro-9a-N-[N′-(β-cyanoethyl)-N′-(1-naphtyl)thiocarbamoyl-γ-aminopropyl]-9a-aza-9a-homoerithromycin A], the MIK in assay [1] is 4 µg/mL; in [2], 4 µg/mL; in assay [3] it was 4 µg/mL; in assay [4], 4 µg/mL; in assay [5], 2 µg/mL; in [6], “≦0.125 μg/ml”. Also, the figures for the MIK in assay [7], in assay [8] and in [9] were 8 µg/mL, 2 µg/mL and “≦0.125 μg/ml”, respectively.

`CC[C@H]1OC(=O)[C@H](C)[C@@H](O[C@H]2C[C@@](C)(OC)[C@@H](O)[C@H](C)O2)[C@H](C)[C@@H](O[C@@H]2O[C@H](C)C[C@H](N(C)C)[C@H]2O)[C@](C)(O)C[C@@H](C)CN(CCCNC(=O)Nc2ccccc2C(F)(F)F)[C@H](C)[C@@H](O)[C@]1(C)O` [Example 6, 9-Deoxo-9-dihydro-9a-N-[N′-(2-trifluoromethyl)phenylcarbamoyl-γ-aminopropyl]-9a-aza-9a-homoerithromycin A]: the MIK is 32 µg/mL in assay [1]; 8 µg/mL in [2]; 2 µg/mL in [3]; 64 µg/mL in assay [4]; 8 µg/mL in assay [5]; “≦0.125 μg/ml” in [6]. In addition, the MIK is 32 µg/mL in assay [7], 16 µg/mL in assay [8] and “≦0.125 μg/ml” in assay [9].

As for “9-Deoxo-9-dihydro-9a-N-[N′-(β-cyanoethyl)-N′-benzylcarbamoyl-γ-aminopropyl]-9a-aza-9a-homoerithromycin A [Example 29]”, the MIK in [1] is 64 µg/mL; in assay [2], 16 µg/mL; in assay [3] it was 2 µg/mL; in assay [4], above 64 µg/mL; in [5], 4 µg/mL; in assay [6] it was “≦0.125 μg/ml”. The MIK in assay [7] was above 64 µg/mL; in assay [8] it was 32 µg/mL; in assay [9], “≦0.125 μg/ml”.

Take `CC[C@H]1OC(=O)[C@H](C)[C@@H](O[C@H]2C[C@@](C)(OC)[C@@H](O)[C@H](C)O2)[C@H](C)[C@@H](O[C@@H]2O[C@H](C)C[C@H](N(C)C)[C@H]2O)[C@](C)(O)C[C@@H](C)CN(CCCNC(=O)N(CCC#N)c2ccc3ccccc3c2)[C@H](C)[C@@H](O)[C@]1(C)O` [Example 38, 9-Deoxo-9-dihydro-9a-N-[N′-(β-cyanoethyl)-N′-(2-naphtyl)carbamoyl-γ-aminopropyl]-9a-aza-9a-homoerithromycin A]: the MIK was 8 µg/mL in assay [1]; 2 µg/mL in assay [2]; 1 µg/mL in assay [3]; 8 µg/mL in assay [4]; 0.5 µg/mL in [5]; “≦0.125 μg/ml” in [6]. For the same compound, the results for the MIK in assay [7], in [8] and in [9] were 32 µg/mL, 2 µg/mL and “≦0.125 μg/ml”, respectively.

On to “9-Deoxo-9-dihydro-9a-N-[N′-(β-cyanoethyl)-N′-(β-phenylethyl)thiocarbamoyl-γ-aminopropyl]-9a-aza-9a-homoerithromycin A [Example 34]”, for which the MIK is 8 µg/mL in [1]; 4 µg/mL in assay [2]; 1 µg/mL in assay [3]; 16 µg/mL in [4]; 1 µg/mL in assay [5]; “≦0.125 μg/ml” in assay [6]. In addition, the MIK was 32 µg/mL in assay [7], 2 µg/mL in assay [8] and “≦0.125 μg/ml” in assay [9].

As for `CC[C@H]1OC(=O)[C@H](C)[C@@H](O[C@H]2C[C@@](C)(OC)[C@@H](O)[C@H](C)O2)[C@H](C)[C@@H](O[C@@H]2O[C@H](C)C[C@H](N(C)C)[C@H]2O)[C@](C)(O)C[C@@H](C)CN(CCCNC(=O)N(CCC#N)c2ccccc2C(F)(F)F)[C@H](C)[C@@H](O)[C@]1(C)O` [Example 32, 9-Deoxo-9-dihydro-9a-N-[N′-(β-cyanoethyl)-N′-(2-(trifluoromethyl)phenyl)carbamoyl-γ-aminopropyl]-9a-aza-homoerithromycin A], the MIK in [1] was 32 µg/mL; in [2], 8 µg/mL; in assay [3], 4 µg/mL; in [4], 64 µg/mL; in assay [5] it was 8 µg/mL; in [6], “≦0.125 μg/ml”. The MIK in [7] was 32 µg/mL; in [8], 16 µg/mL; in assay [9] it was “≦0.125 μg/ml”.

With `CC[C@H]1OC(=O)[C@H](C)[C@@H](O[C@H]2C[C@@](C)(OC)[C@@H](O)[C@H](C)O2)[C@H](C)[C@@H](O[C@@H]2O[C@H](C)C[C@H](N(C)C)[C@H]2O)[C@](C)(O)C[C@@H](C)C(=O)[C@H](C)[C@@H](O)[C@]1(C)O` [Er, erythromycin A, reference compound], the MIK is 8 µg/mL in assay [1]; above 64 µg/mL in [2]; 1 µg/mL in [4]; 32 µg/mL in assay [7]; 2 µg/mL in assay [8]; 0.25 µg/mL in [9].
